US10314843B2, “Combinations for the treatment of neoplasms using quiescent cell targeting and inhibitors of mitosis” (Felicitex Therapeutics, Inc., priority 2016, dated 2019)

What was measured:
Assay type in all cases: cell-based
SW620 cells [1] = experiment: CellTiter-Glo cell viability assay, SW620 cells; conditions: Homo sapiens, SW-620, SW620 cells
Description: (§1) The following cell lines were obtained from ATCC and cultured according to the ATCC recommendations: DMS273—small cell lung cancer cell line; H1975—non-small cell lung cancer cell line harboring L858R and T790M mutations in EGFR TK; A549—a non-small cell lung cancer cell line with wild type EGFR; LNCap—prostate cancer cell line; SW620—colon cancer cell line; MiaPaCa2—pancreatic cancer cell line; PANC1—pancreatic cancer cell line; OVCAR3—ovarian cancer cell line; SK-OV-3—ovarian cancer cell line.
(§2) For viability analysis, cells were seeded into 96-well plates at 2×10^3-6×10^3 cells/well; the plated number of cells depended on cell size and rate of proliferation aiming for approximately 50% confluency. After seeding, the cells were allowed to attach for 24 hours incubated at 37° C. in a humidified 5% CO2 atmosphere.
(§3) The treatments were performed using at least 6 different concentrations of a compound in 1:3 serial dilutions in DMSO such that the DMSO concentration in the cell medium was <1%. The cell cultures were incubated for an additional 96 hours in 5% CO2 incubator at 37° C. Treatments were performed in triplicate. Results were analyzed by CellTiter-Glo™ Luminescent Cell Viability Assay (Promega, cat. #G7571) according to the manufacturer's instructions using Spectra MAX Gemini Spectrophotometer (Molecular Devices).

DMS273 cells [2] = experiment: CellTiter-Glo cell viability assay, DMS273 cells; conditions: Homo sapiens, DMS-273, DMS273 cells
Description: as §1, §2, §3

HCC827 cells = experiment: CellTiter-Glo cell viability assay, HCC827 cells; conditions: Homo sapiens
Procedure: as §2, §3

A549 cells = experiment: CellTiter-Glo cell viability assay, A549 cells; conditions: Homo sapiens
Description: as §1, §2, §3

SK-OV-3 cells = experiment: CellTiter-Glo cell viability assay, SK-OV-3 cells; conditions: Homo sapiens, SK-OV-3, SK-OV-3 cells
Description: as §1, §2, §3

OVCAR3 cells = experiment: CellTiter-Glo cell viability assay, OVCAR3 cells; conditions: Homo sapiens, OVCAR-3, OVCAR3 cells
Description: as §1, §2, §3

LNCap cells = experiment: CellTiter-Glo cell viability assay, LNCap cells; conditions: Homo sapiens
Description: as §1, §2, §3

DMS273 cells [3] = experiment: FACS cell cycle distribution (Acridine Orange), DMS273 cells; conditions: mitotic inhibitor alone, FBS+ media, 24 hours (2.7 nM paclitaxel; 1.1 nM vincristine; 8.1 nM vinorelbine)
Description: as §1
(§4) Cell cultures were seeded into 6-well plates at 3×10^5-6×10^5 cells/well; the plated number of cells depended on cell size and rate of proliferation, aiming for approximately 50% confluency. After seeding, the cells were allowed to attach for 24 hours while incubated at 37° C. in a humidified 5% CO2 atmosphere, and then treated with compounds for desired amount of time (usually 24 hours) incubating under same conditions. Then the cells were harvested by trypsinization, pooled with the floating cells, washed in PBS, and fixed in 70% ice-cold ethanol overnight. For Acridine Orange (AO) staining, fixed cells were washed once with ice-cold PBS, re-suspended in 100 μL PBS, followed by addition of 200 μL of permeabilizing solution and 600 μL AO staining solution. The measurements were performed with Guava easyCyte HT flow cytometer (EMD Millipore) using the blue laser for excitation at 488 nm, monitoring emission of the AO-DNA complex at 526 nm and AO-RNA complex at 650 nm. The complete protocol and composition of buffers are described in the literature (Darzynkiewicz Z, Juan G, and Srour E F (2004) Differential Staining of DNA and RNA (2004). Current Protocols in Cytometry, Chapter 7:Unit 7.3).

SW620 cells [4] = experiment: FACS cell cycle distribution (Acridine Orange), SW620 cells; conditions: paclitaxel alone (2 nM), FBS+ media, 24 hours
Description: as §1, §4

H1975 cells = experiment: CellTiter-Glo cell viability assay, H1975 cells; conditions: Homo sapiens, NCI-H1975, H1975 cells
Description: as §1, §2, §3

CC(=O)O[C@@]12CO[C@@H]1C[C@H](O)[C@@]1(C)C(=O)[C@H](O)C3=C(C)[C@@H](OC(=O)[C@H](O)[C@@H](NC(=O)OC(C)(C)C)c4ccccc4)C[C@@](O)([C@@H](OC(=O)c4ccccc4)[C@H]21)C3(C)C [docetaxel]
EC50 (SW620 cells [1]; Compound I-5 not present): 2.85 nM | EC50 (SW620 cells [1]; Compound I-5 present at 2 μM): 0.69 nM | EC50 (SW620 cells [1]; Compound I-5 present at 4 μM): < 0.015 nM | EC50 (DMS273 cells [2]; Compound I-7 not present): 0.64 nM | EC50 (DMS273 cells [2]; Compound I-7 present at 2 μM): 0.38 nM | EC50 (DMS273 cells [2]; Compound I-7 present at 4 μM): 0.14 nM | EC50 (HCC827 cells; Compound I-7 not present): 1.8 nM | EC50 (HCC827 cells; Compound I-7 present at 2 μM): 0.6 nM | EC50 (HCC827 cells; Compound I-7 present at 4 μM): 0.03 nM | EC50 (A549 cells; Compound I-7 not present): 1.4 nM | EC50 (A549 cells; Compound I-7 present at 2 μM): 0.6 nM | EC50 (A549 cells; Compound I-7 present at 4 μM): 0.1 nM | EC50 (SK-OV-3 cells; Compound I-7 not present): 2.5 nM | EC50 (SK-OV-3 cells; Compound I-7 present at 2 μM): 1.5 nM | EC50 (SK-OV-3 cells; Compound I-7 present at 4 μM): 0.3 nM | EC50 (OVCAR3 cells; Compound I-7 not present): 0.85 nM | EC50 (OVCAR3 cells; Compound I-7 present at 2 μM): 0.52 nM | EC50 (OVCAR3 cells; Compound I-7 present at 4 μM): < 0.04 nM

CC(=O)O[C@H]1C(=O)[C@@]2(C)[C@H]([C@H](OC(=O)c3ccccc3)[C@]3(O)C[C@H](OC(=O)[C@H](O)[C@@H](NC(=O)c4ccccc4)c4ccccc4)C(C)=C1C3(C)C)[C@]1(OC(C)=O)CO[C@@H]1C[C@@H]2O [paclitaxel]
EC50 (SW620 cells [1]; Compound I-5 not present): 8.1 nM | EC50 (SW620 cells [1]; Compound I-5 present at 2 μM): 2.3 nM | EC50 (SW620 cells [1]; Compound I-5 present at 4 μM): 0.2 nM | EC50 (DMS273 cells [2]; Compound I-7 not present): 2.7 nM | EC50 (DMS273 cells [2]; Compound I-7 present at 2 μM): 1.9 nM | EC50 (DMS273 cells [2]; Compound I-7 present at 4 μM): 0.9 nM | EC50 (LNCap cells; Compound I-5 not present): 3.2 nM | EC50 (LNCap cells; Compound I-5 present at 2 μM): 2.1 nM | EC50 (LNCap cells; Compound I-5 present at 4 μM): 0.9 nM | EC50 (HCC827 cells; Compound I-7 not present): 4.2 nM | EC50 (HCC827 cells; Compound I-7 present at 3 μM): 2.5 nM | EC50 (HCC827 cells; Compound I-7 present at 6 μM): 0.6 nM | EC50 (A549 cells; Compound I-7 not present): 4.8 nM | EC50 (A549 cells; Compound I-7 present at 3 μM): 2.5 nM | EC50 (A549 cells; Compound I-7 present at 6 μM): 0.7 nM | EC50 (SK-OV-3 cells; Compound I-7 not present): 9.7 nM | EC50 (SK-OV-3 cells; Compound I-7 present at 2 μM): 9.4 nM | EC50 (SK-OV-3 cells; Compound I-7 present at 4 μM): 4.8 nM | EC50 (SK-OV-3 cells; Compound I-7 present at 8 μM): 4.7 nM | EC50 (SK-OV-3 cells; Compound I-7 present at 10 μM): 5.2 nM | EC50 (OVCAR3 cells; Compound I-7 not present): 3.3 nM | EC50 (OVCAR3 cells; Compound I-7 present at 3 μM): 2.8 nM | EC50 (OVCAR3 cells; Compound I-7 present at 6 μM): 1.7 nM | pharmacological quiescence (fraction of cells in G0 phase) (DMS273 cells [3]): does not result in pharmacological quiescence | pharmacological quiescence (fraction of cells in G0 phase) (SW620 cells [4]): does not result in pharmacological quiescence

CC[C@]1(O)C[C@H]2CN(CCc3c([nH]c4ccccc34)[C@@](C(=O)OC)(c3cc4c(cc3OC)N(C=O)[C@H]3[C@@](O)(C(=O)OC)[C@H](OC(C)=O)[C@]5(CC)C=CCN6CC[C@]43[C@@H]65)C2)C1 [vincristine]
EC50 (DMS273 cells [2]; Compound I-5 not present): 1.1 nM | EC50 (DMS273 cells [2]; Compound I-5 present at 2 μM): 0.4 nM | EC50 (DMS273 cells [2]; Compound I-5 present at 4 μM): < 0.04 nM | EC50 (SK-OV-3 cells; Compound I-7 not present): 8.7 nM | EC50 (SK-OV-3 cells; Compound I-7 present at 4 μM): 2.1 nM | EC50 (SK-OV-3 cells; Compound I-7 present at 8 μM): 1 nM | EC50 (OVCAR3 cells; Compound I-7 not present): 1.2 nM | EC50 (OVCAR3 cells; Compound I-7 present at 2 μM): 0.8 nM | EC50 (OVCAR3 cells; Compound I-7 present at 4 μM): 0.1 nM | EC50 (H1975 cells; Compound I-5 not present): 1.5 nM | EC50 (H1975 cells; Compound I-5 present at 2 μM): 0.85 nM | EC50 (H1975 cells; Compound I-5 present at 4 μM): 0.35 nM | pharmacological quiescence (fraction of cells in G0 phase) (DMS273 cells [3]): does not result in pharmacological quiescence

CCC1=C[C@@H]2CN(C1)Cc1c([nH]c3ccccc13)[C@@](C(=O)OC)(c1cc3c(cc1OC)N(C)[C@H]1[C@@](O)(C(=O)OC)[C@H](OC(C)=O)[C@]4(CC)C=CCN5CC[C@]31[C@@H]54)C2 [vinorelbine]
EC50 (DMS273 cells [2]; Compound I-5 not present): 1.1 nM | EC50 (DMS273 cells [2]; Compound I-5 present at 2 μM): 0.4 nM | EC50 (DMS273 cells [2]; Compound I-5 present at 4 μM): < 0.04 nM | EC50 (A549 cells; Compound I-7 not present): 27 nM | EC50 (A549 cells; Compound I-7 present at 2 μM): 16 nM | EC50 (A549 cells; Compound I-7 present at 4 μM): 6 nM | EC50 (SK-OV-3 cells; Compound I-7 not present): 15.1 nM | EC50 (SK-OV-3 cells; Compound I-7 present at 2 μM): 10.1 nM | EC50 (SK-OV-3 cells; Compound I-7 present at 4 μM): 4.7 nM | EC50 (OVCAR3 cells; Compound I-7 not present): 2.4 nM | EC50 (OVCAR3 cells; Compound I-7 present at 1 μM): 2.4 nM | EC50 (OVCAR3 cells; Compound I-7 present at 3 μM): 0.1 nM | EC50 (H1975 cells; Compound I-5 not present): 9.5 nM | EC50 (H1975 cells; Compound I-5 present at 2 μM): 5.2 nM | EC50 (H1975 cells; Compound I-5 present at 4 μM): 2.1 nM | pharmacological quiescence (fraction of cells in G0 phase) (DMS273 cells [3]): does not result in pharmacological quiescence
